# In the OligoGym collection:
# HELM strings list units from the 5' end as sugar, base in round brackets, then linkage (d deoxyribose, r ribose, m 2'-O-methyl, p phosphodiester). Strings are as the collection lists them; they lack the last nucleoside at the 3' end of the tested compound. [moe] = 2'-O-(2-methoxyethyl) (MOE); [sp] = phosphorothioate linkage; [m5C] = 5-methylcytosine
# Molecular target: LRRK2
# Test: mouse, dose not given
# Conditions: ASO
row,Substance,3 h FOB score [score 0-7]
1,RNA1{[moe](G)[sp].[moe](A)p.[moe](A)[sp].[moe](A)[sp].[moe](T)[sp].d(G)[sp].d(A)[sp].d(G)[sp].d(T)[sp].d(G)[sp].d([m5C])[sp].d(A)[sp].d(T)[sp].d(G)[sp].d(G)[sp].[moe]([m5C])[sp].[moe](A)p.[moe](T)[sp].[moe]([m5C])}$$$$ (last 3' nucleoside missing),7
2,RNA1{[moe](G)[sp].[moe](T)p.[moe](G)[sp].[moe]([m5C])[sp].[moe](A)[sp].d(A)[sp].d(G)[sp].d(T)[sp].d([m5C])[sp].d([m5C])[sp].d(A)[sp].d(A)[sp].d(A)[sp].d(T)[sp].d(G)[sp].[moe](T)[sp].[moe](G)p.[moe](T)[sp].[moe]([m5C])}$$$$ (last 3' nucleoside missing),4
3,RNA1{[moe](T)[sp].[moe](G)p.[moe](T)[sp].[moe]([m5C])[sp].[moe](A)[sp].d([m5C])[sp].d([m5C])[sp].d(T)[sp].d(T)[sp].d(T)[sp].d([m5C])[sp].d([m5C])[sp].d([m5C])[sp].d(A)[sp].d(A)[sp].[moe](T)[sp].[moe](G)p.[moe]([m5C])[sp].[moe](T)}$$$$ (last 3' nucleoside missing),5
4,RNA1{[moe](A)[sp].[moe](A)p.[moe]([m5C])[sp].[moe](G)[sp].[moe]([m5C])[sp].d(A)[sp].d([m5C])[sp].d(T)[sp].d(T)[sp].d(A)[sp].d(A)[sp].d([m5C])[sp].d(A)[sp].d(A)[sp].d(T)[sp].[moe](A)[sp].[moe](T)p.[moe]([m5C])[sp].[moe](A)}$$$$ (last 3' nucleoside missing),0
5,RNA1{[moe](A)[sp].[moe](T)p.[moe](G)p.[moe]([m5C])p.[moe](A)[sp].d(G)[sp].d(T)[sp].d(T)[sp].d(T)[sp].d([m5C])[sp].d(T)[sp].d([m5C])[sp].d(T)[sp].d(A)[sp].d([m5C])[sp].[moe](T)p.[moe]([m5C])p.[moe](T)[sp].[moe](A)}$$$$ (last 3' nucleoside missing),0
6,RNA1{[moe](T)[sp].[moe]([m5C])p.[moe](T)[sp].[moe](T)[sp].[moe]([m5C])[sp].d(A)[sp].d(G)[sp].d(T)[sp].d(T)[sp].d([m5C])[sp].d([m5C])[sp].d(T)[sp].d(T)[sp].d([m5C])[sp].d(A)[sp].[moe](G)[sp].[moe](T)p.[moe]([m5C])[sp].[moe](T)}$$$$ (last 3' nucleoside missing),3
7,RNA1{[moe](A)[sp].[moe](T)p.[moe](A)[sp].[moe](A)[sp].[moe](G)[sp].d(T)[sp].d(T)[sp].d(T)[sp].d([m5C])[sp].d(A)[sp].d(T)[sp].d(T)[sp].d([m5C])[sp].d(G)[sp].d(G)[sp].[moe](T)[sp].[moe](T)p.[moe](A)[sp].[moe](T)}$$$$ (last 3' nucleoside missing),4
8,RNA1{[moe](A)[sp].[moe](T)p.[moe](G)p.[moe]([m5C])p.[moe](T)[sp].d(T)[sp].d(T)[sp].d([m5C])[sp].d(A)[sp].d(T)[sp].d(A)[sp].d(G)[sp].d([m5C])[sp].d(T)[sp].d(T)[sp].[moe]([m5C])p.[moe]([m5C])p.[moe](A)[sp].[moe]([m5C])}$$$$ (last 3' nucleoside missing),0
9,RNA1{[moe](T)[sp].[moe](T)p.[moe](G)[sp].[moe]([m5C])[sp].[moe](T)[sp].d(G)[sp].d([m5C])[sp].d(T)[sp].d([m5C])[sp].d(A)[sp].d(T)[sp].d(A)[sp].d(T)[sp].d([m5C])[sp].d(T)[sp].[moe](A)[sp].[moe](A)p.[moe](A)[sp].[moe](G)}$$$$ (last 3' nucleoside missing),3
10,RNA1{[moe](T)[sp].[moe](T)p.[moe](A)[sp].[moe](A)[sp].[moe](A)[sp].d(A)[sp].d(T)[sp].d([m5C])[sp].d(T)[sp].d(T)[sp].d([m5C])[sp].d(A)[sp].d(G)[sp].d(T)[sp].d(T)[sp].[moe]([m5C])[sp].[moe]([m5C])p.[moe](T)[sp].[moe](T)}$$$$ (last 3' nucleoside missing),0
11,RNA1{[moe](T)[sp].[moe](A)p.[moe](A)[sp].[moe]([m5C])[sp].[moe](G)[sp].d([m5C])[sp].d(A)[sp].d([m5C])[sp].d(T)[sp].d(T)[sp].d(A)[sp].d(A)[sp].d([m5C])[sp].d(A)[sp].d(A)[sp].[moe](T)[sp].[moe](A)p.[moe](T)[sp].[moe]([m5C])}$$$$ (last 3' nucleoside missing),2
12,RNA1{[moe](A)[sp].[moe](G)p.[moe](T)p.[moe](T)[sp].[moe]([m5C])[sp].d([m5C])[sp].d(T)[sp].d(T)[sp].d([m5C])[sp].d(A)[sp].d(G)[sp].d(T)[sp].d([m5C])[sp].d(T)[sp].d([m5C])[sp].[moe](A)p.[moe](A)p.[moe](G)[sp].[moe](G)}$$$$ (last 3' nucleoside missing),7
13,RNA1{[moe](T)[sp].[moe](T)p.[moe]([m5C])[sp].[moe](A)[sp].[moe](T)[sp].d(T)[sp].d([m5C])[sp].d(G)[sp].d(G)[sp].d(T)[sp].d(T)[sp].d(A)[sp].d(T)[sp].d(A)[sp].d(A)[sp].[moe](G)[sp].[moe](G)p.[moe]([m5C])[sp].[moe](A)}$$$$ (last 3' nucleoside missing),6
14,RNA1{[moe](A)[sp].[moe](A)p.[moe](G)[sp].[moe](T)[sp].[moe]([m5C])[sp].d([m5C])[sp].d(A)[sp].d(A)[sp].d(A)[sp].d(T)[sp].d(G)[sp].d(T)[sp].d(G)[sp].d(T)[sp].d([m5C])[sp].[moe](A)[sp].[moe](A)p.[moe](A)[sp].[moe]([m5C])}$$$$ (last 3' nucleoside missing),5
15,RNA1{[moe]([m5C])[sp].[moe](T)p.[moe]([m5C])p.[moe](A)p.[moe](T)[sp].d(A)[sp].d(T)[sp].d([m5C])[sp].d(T)[sp].d(A)[sp].d(A)[sp].d(A)[sp].d(G)[sp].d(A)[sp].d([m5C])[sp].[moe]([m5C])p.[moe](G)p.[moe]([m5C])[sp].[moe](A)}$$$$ (last 3' nucleoside missing),1
16,RNA1{[moe](A)[sp].[moe](T)p.[moe](A)[sp].[moe](G)[sp].[moe]([m5C])[sp].d(T)[sp].d(T)[sp].d([m5C])[sp].d([m5C])[sp].d(A)[sp].d([m5C])[sp].d([m5C])[sp].d(A)[sp].d([m5C])[sp].d(A)[sp].[moe](A)[sp].[moe](T)p.[moe](A)[sp].[moe](T)}$$$$ (last 3' nucleoside missing),2
17,RNA1{[moe](A)[sp].[moe](A)p.[moe](A)[sp].[moe](T)[sp].[moe](G)[sp].d(A)[sp].d(G)[sp].d(T)[sp].d(G)[sp].d([m5C])[sp].d(A)[sp].d(T)[sp].d(G)[sp].d(G)[sp].d([m5C])[sp].[moe](A)[sp].[moe](T)p.[moe]([m5C])[sp].[moe](A)}$$$$ (last 3' nucleoside missing),4
18,RNA1{[moe](G)[sp].[moe]([m5C])p.[moe](T)p.[moe](G)p.[moe](T)[sp].d(A)[sp].d(A)[sp].d(T)[sp].d(A)[sp].d([m5C])[sp].d(G)[sp].d(G)[sp].d([m5C])[sp].d(A)[sp].d(T)[sp].[moe]([m5C])p.[moe](T)p.[moe]([m5C])[sp].[moe](G)}$$$$ (last 3' nucleoside missing),6
